Data on three compounds can be found in paper PMC12385234, “In Vitro Inhibitory Effects and Molecular Mechanism of Four Theaflavins on Isozymes of CYP450 and UGTs” (Foods, 2025).

pIC50: −log10 of the molar value. Read-outs that look alike come from different tables or passages of the source.

In assay [1] the target is T1, CYP2B6 (Homo sapiens, UniProt P20813).
T1 sequence (P20813 1-491): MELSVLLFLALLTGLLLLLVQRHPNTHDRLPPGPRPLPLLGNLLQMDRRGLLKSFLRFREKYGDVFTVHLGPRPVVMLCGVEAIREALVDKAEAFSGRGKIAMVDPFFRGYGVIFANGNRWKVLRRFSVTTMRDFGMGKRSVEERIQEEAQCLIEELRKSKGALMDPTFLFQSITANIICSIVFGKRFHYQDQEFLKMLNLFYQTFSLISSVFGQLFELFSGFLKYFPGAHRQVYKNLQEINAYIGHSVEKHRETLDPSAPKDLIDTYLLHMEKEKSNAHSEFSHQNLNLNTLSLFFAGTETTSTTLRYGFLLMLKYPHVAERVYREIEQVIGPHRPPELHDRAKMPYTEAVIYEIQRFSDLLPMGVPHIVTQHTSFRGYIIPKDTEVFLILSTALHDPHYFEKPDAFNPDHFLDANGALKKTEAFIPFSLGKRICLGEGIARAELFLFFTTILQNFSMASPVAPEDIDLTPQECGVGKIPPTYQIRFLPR
Put plainly: Inhibition of CYP2B6 (bupropion) in pooled human liver microsomes.
Experimental: (§1) The virological tests for AIDS, hepatitis B, and hepatitis C of the donors were negative. The final reaction volume was 150 µL, and the reaction was carried out in a 96-well deep-well cell plate made of polypropylene. The reaction was conducted at a temperature of 37 °C. […]
(§2) The AB SCIEX 4000/5000 HPLC-MS/MS system, integrated with the HTS PAL autosampler (CTC Analytics AG, Basel, Switzerland) and Shimadzu LC 20 series HPLC (Shimadzu Corporation, Kyoto, Japan), was used for analysis. […] Quantification was achieved by calculating the area under the curve (AUC) for each MRM transition. […]
(§3) In accordance with the DDI guidelines from the NMPA and the US FDA, the inhibition of CYP1A2, 2B6, 2C8, 2C9, 2C19, 2D6, and 3A4 activity by the test article was assessed. The inhibitory effect was determined by measuring the reduction in metabolite formation of respective probe substrates, expressed as relative activity compared to the negative control (NC), using the following formula: Relative activity (% of NC) = (formation of metabolites in test or PC/formation in NC) × 100. […] Data processing: When the calculated value is less than 100, three significant digits are retained. When the calculated value is greater than or equal to 100, only the integer part is retained.

Assay [2] has as its target CYP2C9 (Homo sapiens, UniProt P11712). Put plainly: Inhibition of CYP2C9 (diclofenac) in pooled human liver microsomes.
Experimental: as §1, §2, §3
For assay [3], the target named is CYP2C19 (Homo sapiens, UniProt P33261). The experiment in a line: Inhibition of CYP2C19 (S-mephenytoin) in pooled human liver microsomes.
Experimental: (§4) The final reaction volume was 150 µL, and the reaction was carried out in a 96-well deep-well cell plate made of polypropylene. The reaction was conducted at a temperature of 37 °C. To ensure that the reaction time was within the linear range of the metabolic rate and to avoid data distortion caused by substrate depletion or product feedback inhibition, the reaction time for each substrate varied as follows: the incubation time for detecting CYP3A4 enzyme activity was 5 min; the incubation time for detecting CYP2B6, CYP2C8, CYP2C9, and CYP2D6 enzyme activities was 10 min each; the incubation time for detecting CYP1A2 and CYP2C19 enzyme activities was 30 min each.
(§5) The AB SCIEX 4000/5000 HPLC-MS/MS system, integrated with the HTS PAL autosampler (CTC Analytics AG, Basel, Switzerland) and Shimadzu LC 20 series HPLC (Shimadzu Corporation, Kyoto, Japan), was used for analysis. […]
(§6) In accordance with the DDI guidelines from the NMPA and the US FDA, the inhibition of CYP1A2, 2B6, 2C8, 2C9, 2C19, 2D6, and 3A4 activity by the test article was assessed. The inhibitory effect was determined by measuring the reduction in metabolite formation of respective probe substrates, expressed as relative activity compared to the negative control (NC), using the following formula: Relative activity (% of NC) = (formation of metabolites in test or PC/formation in NC) × 100. […]
Assay [4] addresses CYP2D6 (Homo sapiens, UniProt P10635). Put plainly: Inhibition of CYP2D6 (dextromethorphan) in pooled human liver microsomes. (Liver microsomes are vesicles of endoplasmic reticulum, rich in cytochrome P450 enzymes.)
Experimental: as §4, §5, §6
The target of assay [5] is CYP3A4 (Homo sapiens, UniProt P08684). Put plainly: Inhibition of CYP3A4 (testosterone, midazolam) in pooled human liver microsomes.
Experimental: as §1, §2, §3
Assay [6] addresses T2, UGT1A3 (Homo sapiens, UniProt P35503).
T2 sequence (P35503 29-534): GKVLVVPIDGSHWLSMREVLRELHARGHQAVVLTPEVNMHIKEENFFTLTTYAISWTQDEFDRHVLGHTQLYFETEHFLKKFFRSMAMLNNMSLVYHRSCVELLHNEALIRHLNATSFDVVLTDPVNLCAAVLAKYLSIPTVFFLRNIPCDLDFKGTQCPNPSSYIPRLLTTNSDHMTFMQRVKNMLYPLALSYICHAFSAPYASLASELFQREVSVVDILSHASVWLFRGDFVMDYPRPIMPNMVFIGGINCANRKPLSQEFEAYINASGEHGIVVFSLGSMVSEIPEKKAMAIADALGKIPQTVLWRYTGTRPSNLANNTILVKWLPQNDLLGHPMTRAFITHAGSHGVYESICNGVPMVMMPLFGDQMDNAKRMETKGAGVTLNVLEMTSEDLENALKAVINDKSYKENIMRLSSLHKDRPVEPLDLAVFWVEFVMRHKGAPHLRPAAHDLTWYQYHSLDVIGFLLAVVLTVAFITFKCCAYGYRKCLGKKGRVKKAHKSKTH
The experiment in a line: Inhibition of UGT1A3-mediated beta-estradiol glucuronidation, human recombinant UGT.
Experimental: (§7) These enzymes were then incubated with each compound (Table 1). Subsequently, the corresponding substrates for each UGT isoenzyme were added. The inhibitory effects of the respective products were evaluated by measuring their generation. […] Each incubation mixture was prepared in triplicate, containing 0.25 mg/mL recombinant enzyme, 5 mM UDPGA, and 10 mM propylthiouracil, among other conditions.

Assay [7] addresses T3, UGT1A1 (Homo sapiens, UniProt P22309).
T3 sequence (P22309 26-533): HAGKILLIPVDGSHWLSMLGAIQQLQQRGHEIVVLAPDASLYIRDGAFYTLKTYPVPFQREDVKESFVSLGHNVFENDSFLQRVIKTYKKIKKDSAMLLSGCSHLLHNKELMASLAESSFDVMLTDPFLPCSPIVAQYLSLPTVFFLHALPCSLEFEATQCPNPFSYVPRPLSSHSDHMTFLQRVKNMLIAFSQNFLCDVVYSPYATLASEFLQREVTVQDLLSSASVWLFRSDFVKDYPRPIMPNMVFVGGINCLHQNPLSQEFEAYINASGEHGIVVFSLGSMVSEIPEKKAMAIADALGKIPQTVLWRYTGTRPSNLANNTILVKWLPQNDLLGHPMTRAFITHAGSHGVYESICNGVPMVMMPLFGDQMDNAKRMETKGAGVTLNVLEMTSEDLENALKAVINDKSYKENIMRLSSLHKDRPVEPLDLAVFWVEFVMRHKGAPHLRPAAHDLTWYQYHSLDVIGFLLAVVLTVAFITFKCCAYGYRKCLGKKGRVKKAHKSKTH
The experiment in a line: Inhibition of UGT1A1-catalyzed beta-estradiol glucuronidation, human recombinant UGT.
Experimental: as §7

The target of assay [8] is T4, CYP1A2 (Homo sapiens, UniProt P05177).
T4 sequence (P05177 1-516): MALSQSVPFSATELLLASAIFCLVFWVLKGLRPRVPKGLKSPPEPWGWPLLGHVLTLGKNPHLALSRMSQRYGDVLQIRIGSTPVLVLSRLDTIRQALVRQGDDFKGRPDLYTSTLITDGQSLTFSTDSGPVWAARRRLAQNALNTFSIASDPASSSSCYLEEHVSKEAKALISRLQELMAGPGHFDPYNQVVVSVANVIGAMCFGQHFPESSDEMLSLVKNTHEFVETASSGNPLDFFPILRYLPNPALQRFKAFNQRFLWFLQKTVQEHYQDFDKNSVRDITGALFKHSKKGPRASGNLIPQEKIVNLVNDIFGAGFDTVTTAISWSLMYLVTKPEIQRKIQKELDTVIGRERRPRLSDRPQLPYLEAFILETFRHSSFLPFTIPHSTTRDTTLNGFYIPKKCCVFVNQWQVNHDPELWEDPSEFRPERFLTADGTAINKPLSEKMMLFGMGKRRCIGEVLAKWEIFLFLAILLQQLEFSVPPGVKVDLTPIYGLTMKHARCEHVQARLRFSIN
The experiment in a line: Inhibition of CYP1A2-catalyzed phenacetin metabolism in pooled human liver microsomes.
Experimental: as §1, §2, §3

Assay [9] has as its target T5, CYP2C8 (Homo sapiens, UniProt P10632).
T5 sequence (P10632 1-490): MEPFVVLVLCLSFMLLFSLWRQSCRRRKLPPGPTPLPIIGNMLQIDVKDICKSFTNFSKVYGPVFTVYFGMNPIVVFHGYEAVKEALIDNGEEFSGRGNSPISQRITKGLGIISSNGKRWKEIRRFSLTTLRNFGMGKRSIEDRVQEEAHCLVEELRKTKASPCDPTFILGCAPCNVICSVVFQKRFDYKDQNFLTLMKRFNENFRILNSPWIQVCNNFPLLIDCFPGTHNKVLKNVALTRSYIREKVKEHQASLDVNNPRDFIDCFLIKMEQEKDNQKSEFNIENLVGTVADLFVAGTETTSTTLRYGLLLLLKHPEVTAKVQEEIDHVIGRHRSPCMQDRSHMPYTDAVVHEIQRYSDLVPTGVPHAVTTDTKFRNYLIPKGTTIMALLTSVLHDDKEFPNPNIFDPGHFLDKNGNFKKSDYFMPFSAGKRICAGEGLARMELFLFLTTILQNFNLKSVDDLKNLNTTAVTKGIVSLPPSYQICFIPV
The experiment in a line: Inhibition of CYP2C8-mediated amodiaquine metabolism in pooled human liver microsomes.
Experimental: as §1, §2, §3

The target in assay [10] is T6, UGT1A4 (Homo sapiens, UniProt P22310).
T6 sequence (P22310 29-534): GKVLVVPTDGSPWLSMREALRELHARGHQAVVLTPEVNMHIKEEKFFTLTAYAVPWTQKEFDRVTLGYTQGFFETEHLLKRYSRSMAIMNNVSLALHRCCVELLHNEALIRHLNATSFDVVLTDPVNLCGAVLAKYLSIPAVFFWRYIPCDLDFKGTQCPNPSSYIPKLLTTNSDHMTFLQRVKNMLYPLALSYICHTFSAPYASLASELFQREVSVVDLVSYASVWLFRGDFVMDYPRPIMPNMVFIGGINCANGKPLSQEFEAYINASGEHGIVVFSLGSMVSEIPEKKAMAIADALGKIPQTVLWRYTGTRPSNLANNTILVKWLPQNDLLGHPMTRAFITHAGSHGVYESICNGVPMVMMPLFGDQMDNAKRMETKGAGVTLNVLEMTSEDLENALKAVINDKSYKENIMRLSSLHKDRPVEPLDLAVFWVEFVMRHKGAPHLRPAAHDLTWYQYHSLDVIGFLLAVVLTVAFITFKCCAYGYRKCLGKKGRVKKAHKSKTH
Put plainly: Inhibition of UGT1A4-catalyzed trifluoperazine glucuronidation, human recombinant UGT.
Experimental: as §7

In assay [11] the target is T7, UGT2B15 (Homo sapiens, UniProt P54855).
T7 sequence (P54855 24-530): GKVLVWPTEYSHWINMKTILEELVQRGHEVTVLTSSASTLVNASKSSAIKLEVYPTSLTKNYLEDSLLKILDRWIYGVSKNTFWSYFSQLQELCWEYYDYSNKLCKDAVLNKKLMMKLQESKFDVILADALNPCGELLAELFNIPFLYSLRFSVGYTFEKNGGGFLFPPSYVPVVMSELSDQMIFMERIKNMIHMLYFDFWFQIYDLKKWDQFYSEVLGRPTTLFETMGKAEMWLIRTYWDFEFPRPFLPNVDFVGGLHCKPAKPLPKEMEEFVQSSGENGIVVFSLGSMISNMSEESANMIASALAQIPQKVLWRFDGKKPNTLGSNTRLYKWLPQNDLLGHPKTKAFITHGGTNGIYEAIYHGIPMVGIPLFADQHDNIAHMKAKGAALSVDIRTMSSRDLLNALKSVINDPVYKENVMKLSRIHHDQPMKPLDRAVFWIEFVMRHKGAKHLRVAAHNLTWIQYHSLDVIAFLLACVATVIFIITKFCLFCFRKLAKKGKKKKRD
The experiment in a line: Inhibition of UGT2B15-catalyzed 4-trifluoromethyl-7-hydroxycoumarin glucuronidation, human recombinant UGT.
Experimental: as §7

The test system of assay [12] is UGT1A1. The settings on record: cited from earlier work.
Assay [13] concerns UGT1A9. The note with it: cited from earlier work.

Chain of CYP3A4 (P08684 whole entry): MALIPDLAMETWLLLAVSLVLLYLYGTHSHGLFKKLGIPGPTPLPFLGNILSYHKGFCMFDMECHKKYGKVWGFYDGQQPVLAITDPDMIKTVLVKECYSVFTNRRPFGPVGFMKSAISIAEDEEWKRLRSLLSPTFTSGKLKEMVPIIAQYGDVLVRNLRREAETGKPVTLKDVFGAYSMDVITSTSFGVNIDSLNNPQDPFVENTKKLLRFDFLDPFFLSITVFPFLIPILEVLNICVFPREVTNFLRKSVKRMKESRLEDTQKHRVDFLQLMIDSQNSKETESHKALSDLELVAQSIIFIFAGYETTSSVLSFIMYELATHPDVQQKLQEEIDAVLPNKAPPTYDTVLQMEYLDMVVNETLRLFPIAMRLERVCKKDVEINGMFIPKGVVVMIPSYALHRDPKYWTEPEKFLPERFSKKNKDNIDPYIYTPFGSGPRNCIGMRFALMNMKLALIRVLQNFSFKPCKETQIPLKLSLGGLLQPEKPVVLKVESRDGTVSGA
Chain of CYP2C19 (P33261 whole entry): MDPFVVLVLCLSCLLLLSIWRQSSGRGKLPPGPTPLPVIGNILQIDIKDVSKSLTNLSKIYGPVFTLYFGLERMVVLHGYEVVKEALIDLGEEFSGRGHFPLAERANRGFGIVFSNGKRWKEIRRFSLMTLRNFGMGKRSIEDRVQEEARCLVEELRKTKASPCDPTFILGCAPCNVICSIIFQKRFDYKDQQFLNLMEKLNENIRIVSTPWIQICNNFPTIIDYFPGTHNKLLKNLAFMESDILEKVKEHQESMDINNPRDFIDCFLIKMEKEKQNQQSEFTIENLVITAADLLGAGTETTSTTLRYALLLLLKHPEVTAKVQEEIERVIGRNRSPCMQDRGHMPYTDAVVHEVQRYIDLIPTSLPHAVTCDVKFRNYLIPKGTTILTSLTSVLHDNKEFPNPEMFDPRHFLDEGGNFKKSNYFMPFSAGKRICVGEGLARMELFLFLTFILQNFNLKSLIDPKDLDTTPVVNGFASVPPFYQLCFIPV
Chain of CYP2D6 (P10635 whole entry): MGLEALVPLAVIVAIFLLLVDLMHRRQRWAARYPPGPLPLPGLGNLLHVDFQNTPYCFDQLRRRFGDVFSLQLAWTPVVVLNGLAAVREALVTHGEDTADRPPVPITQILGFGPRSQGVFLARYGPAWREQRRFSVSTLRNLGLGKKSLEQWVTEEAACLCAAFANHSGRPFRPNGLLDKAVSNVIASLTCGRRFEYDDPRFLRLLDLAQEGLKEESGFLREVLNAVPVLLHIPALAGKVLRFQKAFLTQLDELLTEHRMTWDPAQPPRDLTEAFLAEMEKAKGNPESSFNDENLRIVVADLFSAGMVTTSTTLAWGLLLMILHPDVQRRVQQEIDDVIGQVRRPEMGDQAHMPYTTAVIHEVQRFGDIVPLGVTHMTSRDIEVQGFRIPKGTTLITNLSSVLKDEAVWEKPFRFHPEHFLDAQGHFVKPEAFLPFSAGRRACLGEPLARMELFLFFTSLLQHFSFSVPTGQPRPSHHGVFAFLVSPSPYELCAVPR
Chain of CYP2C9 (P11712 whole entry): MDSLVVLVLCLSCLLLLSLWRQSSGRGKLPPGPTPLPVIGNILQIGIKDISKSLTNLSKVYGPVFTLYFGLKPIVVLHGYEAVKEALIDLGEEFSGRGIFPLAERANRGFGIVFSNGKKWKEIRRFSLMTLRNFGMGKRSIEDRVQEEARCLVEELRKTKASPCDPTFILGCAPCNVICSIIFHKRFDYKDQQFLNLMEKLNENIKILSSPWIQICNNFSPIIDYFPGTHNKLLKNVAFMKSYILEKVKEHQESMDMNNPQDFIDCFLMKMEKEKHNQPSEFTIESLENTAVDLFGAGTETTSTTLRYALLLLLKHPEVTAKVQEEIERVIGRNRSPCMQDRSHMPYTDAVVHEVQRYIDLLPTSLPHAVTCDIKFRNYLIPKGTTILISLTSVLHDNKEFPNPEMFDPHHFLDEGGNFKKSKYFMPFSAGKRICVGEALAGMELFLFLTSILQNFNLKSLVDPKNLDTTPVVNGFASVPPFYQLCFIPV

As usually defined, the pIC50 is −log10 of the IC50, conventionally taken in molar units. Take `O=c1c(O)cc([C@H]2Oc3cc(O)cc(O)c3C[C@H]2O)cc2c([C@H]3Oc4cc(O)cc(O)c4C[C@H]3O)cc(O)c(O)c12` [Theaflavin, theaflavin]: the negative-log IC50 (pIC50) was below 4.70 in [1]; below 4.70 in assay [2]; below 4.70 in assay [3]; below 4.70 in assay [4]; below 4.70 in assay [5]; below 4.70 in assay [5] (read-out: IC50, CYP3A4-M, pooled HLMs, probe midazolam). The pIC50 in assay [6] is below 4.70; in assay [7] it was 5.41; in assay [8] it was below 4.70; in assay [9] it was below 4.70; in assay [10], below 4.70; in assay [11], below 4.70.

For `O=c1c(O)c(-c2ccc(O)c(O)c2)oc2cc(O)cc(O)c12` [quercetin], the “Inhibition of UGT1A1 (in words)” value in assay [12] is given as “strong inhibition”.

For (-)-epigallocatechin-3-gallate [EGCG], in assay [12], the “Inhibition of UGT1A1 (in words)” value is given as “moderately inhibit”. In addition, in assay [13], the “Inhibition of UGT1A9 (in words)” value is on record as “moderately inhibit”.
